Reference: ChEMBL document CHEMBL4028827, “Discovery of indazole aldosterone synthase (CYP11B2) inhibitors as potential treatments for hypertension” (Bioorg Med Chem Lett, 2017)

Columns and labels:
[1] = Intrinsic clearance in rat liver microsomes at […] preincubated for 10 mins followed by NADPH addition measured after 45 mins by LC-MS analysis; assay type: ADME, microsome; details: read-out: CLH
[2] = molecular target: T1, Steroid 17-alpha-hydroxylase/17,20 lyase (Homo sapiens, UniProt P05093); experiment: Inhibition of human CYP17 expressed in African green monkey COS7 cells using 17-hydroxypregnenolone as substrate preincubated for 1 hr followed by substrate addition measured after 3 hrs by EIA; assay type: cell-based
T1 sequence (P05093 whole entry): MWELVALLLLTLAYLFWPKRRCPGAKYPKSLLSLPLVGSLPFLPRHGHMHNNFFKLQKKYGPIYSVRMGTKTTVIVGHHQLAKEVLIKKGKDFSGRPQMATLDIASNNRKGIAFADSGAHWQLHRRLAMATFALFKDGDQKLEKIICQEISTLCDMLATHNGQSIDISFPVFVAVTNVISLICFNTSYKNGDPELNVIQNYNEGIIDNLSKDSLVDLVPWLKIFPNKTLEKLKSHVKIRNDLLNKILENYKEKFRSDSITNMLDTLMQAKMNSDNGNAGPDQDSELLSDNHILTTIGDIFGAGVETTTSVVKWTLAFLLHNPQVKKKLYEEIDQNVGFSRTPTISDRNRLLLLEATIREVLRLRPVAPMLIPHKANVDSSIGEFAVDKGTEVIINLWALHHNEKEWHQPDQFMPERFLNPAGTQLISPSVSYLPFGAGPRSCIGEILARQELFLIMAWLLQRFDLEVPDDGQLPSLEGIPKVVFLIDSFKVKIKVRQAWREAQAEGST

[3] = molecular target: T2, Aromatase (Homo sapiens, UniProt P11511); experiment: Inhibition of CYP19 (unknown origin) using MFC as substrate and NADPH as cofactor preincubated for 10 mins with cofactor followed by substrate/enzyme addition measured after 30 mins
T2 sequence (P11511 whole entry): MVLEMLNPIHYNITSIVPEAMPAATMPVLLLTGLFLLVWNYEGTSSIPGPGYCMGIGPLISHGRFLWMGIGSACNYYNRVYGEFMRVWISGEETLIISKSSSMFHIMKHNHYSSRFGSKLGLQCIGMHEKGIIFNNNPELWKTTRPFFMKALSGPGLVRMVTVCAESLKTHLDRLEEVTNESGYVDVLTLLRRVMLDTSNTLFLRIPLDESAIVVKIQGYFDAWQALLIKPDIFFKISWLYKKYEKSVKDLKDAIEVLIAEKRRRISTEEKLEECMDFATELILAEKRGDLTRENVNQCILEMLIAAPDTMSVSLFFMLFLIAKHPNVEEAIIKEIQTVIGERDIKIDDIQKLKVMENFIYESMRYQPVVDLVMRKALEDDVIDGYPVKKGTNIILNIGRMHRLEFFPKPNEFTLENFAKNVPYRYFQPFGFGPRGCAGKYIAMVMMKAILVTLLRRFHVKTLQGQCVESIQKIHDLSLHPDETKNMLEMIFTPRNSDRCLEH

[4] = molecular target: T3, Cytochrome P450 11B1, mitochondrial (Homo sapiens, UniProt P15538); experiment: Inhibition of human CYP11B1-8C7 expressed in Chinese hamster V79 cells using 11-deoxycortisol as substrate preincubated for 1 hr followed by substrate addition measured for 3 hrs by HTRF assay; assay type: ADME, cell-based
T3 sequence (P15538 whole entry): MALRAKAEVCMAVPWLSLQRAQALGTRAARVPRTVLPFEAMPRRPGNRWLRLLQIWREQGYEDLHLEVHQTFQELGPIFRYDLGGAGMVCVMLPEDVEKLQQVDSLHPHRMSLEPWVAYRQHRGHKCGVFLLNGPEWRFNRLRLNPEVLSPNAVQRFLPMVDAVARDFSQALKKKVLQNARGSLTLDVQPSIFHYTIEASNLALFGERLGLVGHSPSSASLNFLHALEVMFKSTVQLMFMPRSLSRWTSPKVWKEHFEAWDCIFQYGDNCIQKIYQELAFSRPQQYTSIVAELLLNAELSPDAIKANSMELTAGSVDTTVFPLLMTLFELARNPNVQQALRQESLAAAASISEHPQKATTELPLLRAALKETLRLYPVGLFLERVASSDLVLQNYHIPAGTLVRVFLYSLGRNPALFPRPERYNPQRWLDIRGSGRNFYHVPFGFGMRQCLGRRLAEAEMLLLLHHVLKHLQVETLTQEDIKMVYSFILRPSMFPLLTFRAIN

CLint scaled [1]: < 20 mL/min/kg
IC50 [2]: > 10 µM
IC50 [3]: 4.6 µM
IC50 [4]: 0.098 to 0.0983 µM
SMILES: CC(C)(O)c1cncc(-n2ncc3c(C(F)(F)F)cccc32)c1
